# Legend:
# [1] = Buffering capacity in a cell-free system (addition of 1.25 M HCl); type: physicochemical
# Procedure: By contrast, the pH of HLB solution (initial pH 7.7) drops below 7.2 with the addition of about 0.01 ml of a 1.25 M HCl solution.
# When the solution of the present invention is used as a blood substitute at hypothermic temperatures, medical grade sterile NaHCO3 is added to the heat sterilized solution (HL solution). The solution containing NaHCO3 is called HLB solution. Under in vivo conditions with oxygenation, HLB solution is shown to maintain pH above 7.3 in temperatures ranging from 1.6-36.1° C. (Tables 2 and 3).
# [2] = cited from earlier work
initial pH ([1]; cell-free solution before HCl addition),"volume of 1.25 M HCl solution added with pH maintained above 7.2 ([1]; cell-free, initial pH about 7.7)",Compound,"share of dose eliminated in the urine ([2]; 500 ml intravenous dose of 6% solution, after 24 hours)",share of dose remaining circulating ([2]; after 1 week)
about 7.7,up to 0.12 mls,"NCC(CO)(CO)CO [25 mM TRIS, Tris[Hydroxymethyl]methyl aminomethane]",,
,,hydroxyethyl starch,approximately 33%,Approximately 10%

# — patent US6410218B1, “Plasma-like solution” (BioTime, Inc., priority 1993, dated 2002)
